Values quoted from earlier work, collected in US11780971B2, “Active yarns and textiles for the stabilization and controlled release of active compounds” (priority 2018, dated 2023).
Values joined by “and” are separate entries in the source; they are usually repeats but may differ in a detail not shown here. Identical values can stand only once.

System: Staphylococcus aureus strain

In the case of C=CCc1ccc(O)c(OC)c1 [eugenol], the “Minimum Inhibitory Concentration (MIC)” value is listed as 625 µg/mL and 662 µg/mL.
